# Reference: ChEMBL document CHEMBL6182902, “Design, synthesis, and discovery of cinnamoyl amide derivatives as potent NagZ inhibitors with antibacterial activity” (Eur J Med Chem, 2025)
# pIC50, pKi: −log10 of the molar value. Active and inactive are the calls of the source. The calls are words filed in the database; no cut-off is given here.
# System: Escherichia coli
# Test: Inhibition of recombinant N-terminal His-tagged Escherichia coli BL21 NagZ extracted from Escherichia coli BL21 using pNP-GlcNAc as substrate at 100 uM by absorbance based assay relative to control
# Details: not given
row,Structure (SMILES),inhibition
1,O=C(/C=C/c1ccc(Cl)c(Cl)c1)N[C@H](Cc1ccc(Br)cc1)C(=O)O,87%
2,O=C(/C=C/c1ccc(Cl)c(Cl)c1)NC(Cc1ccc(Br)cc1)C(=O)O (racemic),86.1%
3,O=C(O[C@@H]1Cc2c(O)cc(O)cc2O[C@@H]1c1cc(O)c(O)c(O)c1)c1cc(O)c(O)c(O)c1 [EPIGALOCATECHIN GALLATE],51.4%
4,CC1(C)CC[C@]2(C(=O)O)CC[C@]3(C)C(=CC[C@@H]4[C@@]5(C)CC[C@H](O)[C@@](C)(CO)[C@@H]5CC[C@]43C)[C@@H]2C1 [HEDERAGENIN],29.4%
5,O=C(/C=C/c1ccc(Cl)cc1)N[C@@H](Cc1ccc(I)cc1)C(=O)O,75.7%
6,O=C(O[C@@H]1Cc2c(O)cc(O)cc2O[C@H]1c1cc(O)c(O)c(O)c1)c1cc(O)c(O)c(O)c1 [GALLOCATECHIN GALLATE],54.9%
7,O=C(/C=C/c1c(Cl)cccc1Cl)N[C@@H](Cc1ccc(I)cc1)C(=O)O,76.9%
8,O=C(/C=C/c1ccc(Br)cc1)N[C@@H](Cc1ccc(I)cc1)C(=O)O,81.2%
9,O=C(N[C@@H](Cc1ccc(I)cc1)C(=O)O)/C(=C/c1ccccc1)c1ccccc1,86.8%

# System: not listed separately
# Test: Inhibition of recombinant N-terminal His-tagged Escherichia coli BL21 NagZ extracted from Escherichia coli BL21 using pNP-GlcNAc as substrate by absorbance based assay
# Details: not given
row,Structure (SMILES),pIC50
1,O=C(/C=C/c1ccc(Cl)c(Cl)c1)N[C@H](Cc1ccc(Br)cc1)C(=O)O,5.20
2,O=C(/C=C/c1ccc(Cl)c(Cl)c1)NC(Cc1ccc(Br)cc1)C(=O)O (racemic),4.44
3,O=C(O[C@@H]1Cc2c(O)cc(O)cc2O[C@@H]1c1cc(O)c(O)c(O)c1)c1cc(O)c(O)c(O)c1 [EPIGALOCATECHIN GALLATE],4.21
4,CC1(C)CC[C@]2(C(=O)O)CC[C@]3(C)C(=CC[C@@H]4[C@@]5(C)CC[C@H](O)[C@@](C)(CO)[C@@H]5CC[C@]43C)[C@@H]2C1 [HEDERAGENIN],3.99
5,O=C(/C=C/c1ccc(Cl)cc1)N[C@@H](Cc1ccc(I)cc1)C(=O)O,3.74
6,O=C(O[C@@H]1Cc2c(O)cc(O)cc2O[C@H]1c1cc(O)c(O)c(O)c1)c1cc(O)c(O)c(O)c1 [GALLOCATECHIN GALLATE],4.19
7,O=C(/C=C/c1c(Cl)cccc1Cl)N[C@@H](Cc1ccc(I)cc1)C(=O)O,4.07
8,O=C(/C=C/c1ccc(Br)cc1)N[C@@H](Cc1ccc(I)cc1)C(=O)O,3.93
9,O=C(N[C@@H](Cc1ccc(I)cc1)C(=O)O)/C(=C/c1ccccc1)c1ccccc1,4.40

# System: not listed separately
# Test: Inhibition of recombinant N-terminal His-tagged Escherichia coli BL21 NagZ extracted from Escherichia coli BL21 using different concentrations of substrate pNP-GlcNAc by 4-nitrophenolate ion release based spectrophotometric analysis
# Details: not given
row,Structure (SMILES),pKi
1,O=C(/C=C/c1ccc(Cl)c(Cl)c1)N[C@H](Cc1ccc(Br)cc1)C(=O)O,5.46
2,O=C(/C=C/c1ccc(Cl)c(Cl)c1)NC(Cc1ccc(Br)cc1)C(=O)O (racemic),4.65
3,O=C(/C=C/c1ccc(Cl)cc1)N[C@@H](Cc1ccc(I)cc1)C(=O)O,4.25
4,O=C(/C=C/c1c(Cl)cccc1Cl)N[C@@H](Cc1ccc(I)cc1)C(=O)O,4.65
5,O=C(/C=C/c1ccc(Br)cc1)N[C@@H](Cc1ccc(I)cc1)C(=O)O,4.62
6,O=C(N[C@@H](Cc1ccc(I)cc1)C(=O)O)/C(=C/c1ccccc1)c1ccccc1,4.81

# System: Pseudomonas aeruginosa
# Test: Antibacterial activity against Pseudomonas aeruginosa ATCC 27853 infected in female KM mouse assessed as epithelial tissue proliferation in skin at 20 mg/kg, iv measured after 3 days
# Format: functional, organism-based
# Details: time 3.0 day
row,Structure (SMILES),Activity
1,C[C@@H](O)[C@H]1C(=O)N2C(C(=O)O)=C(SCCNC=N)C[C@H]12 [IMIPENEM ANHYDROUS],Active

# System: Pseudomonas aeruginosa
# Test: Antibacterial activity against Pseudomonas aeruginosa ATCC 27853 infected in female KM mouse assessed as wound healing rate in skin at 20 mg/kg, iv measured after 3 days (reference value: 36.2 %)
# Format: functional
# Details: time 3 day
row,Structure (SMILES),Activity
1,C[C@@H](O)[C@H]1C(=O)N2C(C(=O)O)=C(SCCNC=N)C[C@H]12 [IMIPENEM ANHYDROUS],54.4%
